Measured values from patent US8575163B2, “Pyrrolopyridinylpyrimidin-2-ylamine derivatives” (Merck Patent GmbH, priority 2009, dated 2013).

biological target: T1, PDK1 (Homo sapiens, UniProt O15530); experiment: Test for the inhibition of PDK1 (flashplate, 33P-ATP); type: biochemical; settings: His6-PDK1 3.4 nM, 4 μM ATP, 30° C., 60 min
T1 construct: His6 (N)
T1 sequence (O15530 51-556 limits assumed): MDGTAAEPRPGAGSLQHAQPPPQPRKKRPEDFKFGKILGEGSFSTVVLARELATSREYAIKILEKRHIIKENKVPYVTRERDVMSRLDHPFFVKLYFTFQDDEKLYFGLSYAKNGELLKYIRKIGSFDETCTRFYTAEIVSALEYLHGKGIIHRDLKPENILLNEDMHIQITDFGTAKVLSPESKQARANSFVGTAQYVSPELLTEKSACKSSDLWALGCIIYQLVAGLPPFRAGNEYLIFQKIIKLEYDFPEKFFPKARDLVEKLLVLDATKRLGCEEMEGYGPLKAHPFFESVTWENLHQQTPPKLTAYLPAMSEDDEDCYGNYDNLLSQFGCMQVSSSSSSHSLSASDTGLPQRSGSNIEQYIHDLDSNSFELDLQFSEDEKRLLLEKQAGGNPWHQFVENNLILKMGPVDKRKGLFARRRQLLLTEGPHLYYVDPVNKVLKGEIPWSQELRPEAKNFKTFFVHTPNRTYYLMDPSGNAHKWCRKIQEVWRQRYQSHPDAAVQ
Experimental: The experimental batches are carried out in a flashplate system with 384 wells/microtitration plate.
In each case, the PDK1 sample His6-PDK1(1-50)(3.4 nM), the PDK1 substrate biotin-bA-bA-[…] (400 nM), 4 μM ATP (with 0.2 μCi of ^33 P-ATP/well) and the test substance in 50 μl of conventional experimental solution per well are incubated at 30° C. for 60 min. The test substances are employed in corresponding concentrations (if desired in a dilution series). The control is carried out without test substance. The reaction is stopped using standard methods and washed. The activity of the kinase is measured via the incorporated radioactivity in top count. In order to determine the non-specific kinase reaction (blank value), the experimental batches are carried out in the presence of 100 nM staurosporin.
The radioactivity (decompositions per minute) of the blank value (no use of test substance in the presence of staurosporin) is subtracted from all other radioactivity values. The controls (kinase activity without test substance) are set equal to 100 percent and all other radioactivity values (after subtracting the blank value) are expressed set in relation thereto (for example in % of the control).
[formula] IC50 values (50% inhibition) are determined with the aid of statistics programmes, such as, for example, RS1.

| Compound | IC50 |
| --- | --- |
| Cn1cc(-c2cnc3[nH]cc(-c4cc(C(C)(O)c5ccccc5F)nc(N)n4)c3c2)cn1 (racemic) [A102, 1-{2-amino-6-[5-(1-methyl-1H-pyrazol-4-yl)-1H-pyrrolo[2,3-b]pyridin-3-yl]-pyrimidin-4-yl}-1-(2-fluorophenyl)ethanol] | 10 nM |
| CCC(O)(c1ccncc1)c1cc(-c2c[nH]c3ncc(-c4cnn(C)c4)cc23)nc(N)n1 (single isomer, unassigned) [A20, 1-{2-amino-6-[5-(1-methyl-1H-pyrazol-4-yl)-1H-pyrrolo[2,3-b]pyridin-3-yl]-pyrimidin-4-yl}-1-pyridin-4-ylpropan-1-ol] | 2.2 nM |
| CCC(O)(c1ccncc1)c1cc(-c2c[nH]c3ncc(-c4cnn(C)c4)cc23)nc(N)n1 (single isomer, unassigned) [A21, 1-{2-amino-6-[5-(1-methyl-1H-pyrazol-4-yl)-1H-pyrrolo[2,3-b]pyridin-3-yl]-pyrimidin-4-yl}-1-pyridin-4-ylpropan-1-ol] | 36 nM |
| CCC(O)(c1cccc(F)c1)c1cc(-c2c[nH]c3ncc(-c4ccc(CO)cc4)cc23)nc(N)n1 (single isomer, unassigned) [A33, 1-{2-amino-6-[5-(4-hydroxymethylphenyl)-1H-pyrrolo[2,3-b]pyridin-3-yl]-pyrimidin-4-yl}-1-(3-fluorophenyl)propan-1-ol] | 170 nM |
| CCC(O)(c1ccncc1)c1cc(-c2c[nH]c3ncc(-c4cn[nH]c4)cc23)nc(N)n1 (single isomer, unassigned) [A43, 1-{2-amino-6-[5-(1H-pyrazol-4-yl)-1H-pyrrolo[2,3-b]pyridin-3-yl]pyrimidin-4-yl}-1-pyridin-4-ylpropan-1-ol] | 1.6 nM |
| CCC(O)(c1ccncc1)c1cc(-c2c[nH]c3ncc(-c4cn[nH]c4)cc23)nc(N)n1 (single isomer, unassigned) [A44, 1-{2-amino-6-[5-(1H-pyrazol-4-yl)-1H-pyrrolo[2,3-b]pyridin-3-yl]pyrimidin-4-yl}-1-pyridin-4-ylpropan-1-ol] | 17 nM |
| Cn1cc(-c2cnc3[nH]cc(-c4cc(C(C)(O)c5cccnc5)nc(N)n4)c3c2)cn1 (single isomer, unassigned) [A57, 1-{2-amino-6-[5-(1-methyl-1H-pyrazol-4-yl)-1H-pyrrolo[2,3-b]pyridin-3-yl]-pyrimidin-4-yl}-1-pyridin-3-ylethanol] | 28 nM |
| Cn1cc(-c2cnc3[nH]cc(-c4cc(C(C)(O)c5cccnc5)nc(N)n4)c3c2)cn1 (single isomer, unassigned) [A58, 1-{2-amino-6-[5-(1-methyl-1H-pyrazol-4-yl)-1H-pyrrolo[2,3-b]pyridin-3-yl]-pyrimidin-4-yl}-1-pyridin-3-ylethanol] | 85 nM |
| CNc1nc(-c2c[nH]c3ncc(-c4cnn(CCO)c4)cc23)cc(C(C)(O)c2ccccc2)n1 (single isomer, unassigned) [A90, 1-(6-{5-[1-(2-hydroxyethyl)-1H-pyrazol-4-yl]-1H-pyrrolo[2,3-b]pyridin-3-yl}-2-methylaminopyrimidin-4-yl)-1-phenylethanol] | 21 nM |
| CNc1nc(-c2c[nH]c3ncc(-c4cnn(CCO)c4)cc23)cc(C(C)(O)c2ccccc2)n1 (single isomer, unassigned) [A91, 1-(6-{5-[1-(2-hydroxyethyl)-1H-pyrazol-4-yl]-1H-pyrrolo[2,3-b]pyridin-3-yl}-2-methylaminopyrimidin-4-yl)-1-phenylethanol] | 50 nM |
| CO[C@](C)(c1ccccc1)c1cc(-c2c[nH]c3ncc(-c4cnn(CCO)c4)cc23)nc(N)n1 (single isomer, unassigned) [A92] | 35 nM |
| CO[C@@](C)(c1ccccc1)c1cc(-c2c[nH]c3ncc(-c4cnn(CCO)c4)cc23)nc(N)n1 (single isomer, unassigned) [A93] | 48 nM |
| CC(O)(c1ccccc1)c1cc(-c2c[nH]c3ncc(-c4cnn(CCO)c4)cc23)nc(N)n1 (single isomer, unassigned) [A96, 1-(2-amino-6-{5-[1-(2-hydroxyethyl)-1H-pyrazol-4-yl]-1H-pyrrolo[2,3-b]-pyridin-3-yl}pyrimidin-4-yl)-1-phenylethanol] | 18 nM |
| CC(O)(c1ccccc1)c1cc(-c2c[nH]c3ncc(-c4cnn(CCO)c4)cc23)nc(N)n1 (single isomer, unassigned) [A97, 1-(2-amino-6-{5-[1-(2-hydroxyethyl)-1H-pyrazol-4-yl]-1H-pyrrolo[2,3-b]-pyridin-3-yl}pyrimidin-4-yl)-1-phenylethanol] | 38 nM |
| COCOC(C)(c1cccc(F)c1)c1nc(N)nc(-c2c[nH]c3ncc(Br)cc23)c1F (stereo not shown) [A12, 4-(5-bromo-1H-pyrrolo[2,3-b]pyridin-3-yl)-5-fluoro-6-[1-(3-fluorophenyl)-1-methoxymethoxyethyl]pyrimidin-2-ylamine] | > 20000 nM |
| CC(C(=O)N1CCCC1)n1cc(-c2cnc3[nH]cc(-c4cc(C(C)(O)c5ccccc5)nc(N)n4)c3c2)cn1 (stereo not shown) [A14, 2-(4-{3-[2-amino-6-(1-hydroxy-1-phenylethyl)pyrimidin-4-yl]-1H-pyrrolo-[2,3-b]pyridin-5-yl}pyrazol-1-yl)-1-pyrrolidin-1-ylpropan-1-one] | 39 nM |
| COCOC(C)(c1ccccc1)c1cc(-c2c[nH]c3ncc(Br)cc23)nc(N)n1 (stereo not shown) [A15, 4-(5-bromo-1H-pyrrolo[2,3-b]pyridin-3-yl)-6-(1-methoxymethoxy-1-phenylethyl)pyrimidin-2-ylamine] | 500 nM |
| CCCC(O)(c1ccccc1)c1cc(-c2c[nH]c3ncc(Br)cc23)nc(N)n1 (stereo not shown) [A16, 1-[2-amino-6-(5-bromo-1H-pyrrolo[2,3-b]pyridin-3-yl)pyrimidin-4-yl]-1-phenylbutan-1-ol] | 280 nM |
| COCOC(C)(c1ccccc1)c1cc(-c2c[nH]c3ncc(-c4cnn(C)c4)cc23)nc(N)n1 (stereo not shown) [A17, 4-(1-methoxymethoxy-1-phenylethyl)-6-[5-(1-methyl-1H-pyrazol-4-yl)-1H-pyrrolo[2,3-b]pyridin-3-yl]pyrimidin-2-ylamine] | 58 nM |
| COCOC(C)(c1cc(-c2c[nH]c3ncc(Br)cc23)nc(N)n1)c1ccccc1C (stereo not shown) [A19, 4-(5-bromo-1H-pyrrolo[2,3-b]pyridin-3-yl)-6-(1-methoxymethoxy-1-o-tolylethyl)pyrimidin-2-ylamine] | 1500 nM |
| COCOC(C)(c1cccc(C)c1)c1cc(-c2c[nH]c3ncc(-c4cnn(CCO)c4)cc23)nc(N)n1 (stereo not shown) [A22, 2-(4-{3-[2-amino-6-(1-methoxymethoxy-1-m-tolylethyl)pyrimidin-4-yl]-1H-pyrrolo[2,3-b]pyridin-5-yl}pyrazol-1-yl)ethanol] | 59 nM |
| COCOC(C)(c1cccc(C)c1)c1cc(-c2c[nH]c3ncc(-c4cnn(C)c4)cc23)nc(N)n1 (stereo not shown) [A23, 4-(1-methoxymethoxy-1-m-tolylethyl)-6-[5-(1-methyl-1H-pyrazol-4-yl)-1H-pyrrolo[2,3-b]pyridin-3-yl]pyrimidin-2-ylamine] | 130 nM |
| Cn1cc(-c2cnc3[nH]cc(-c4cc(C(C)(O)c5cccnc5)nc(N)n4)c3c2)cn1 (stereo not shown) [A24, 1-{2-amino-6-[5-(1-methyl-1H-pyrazol-4-yl)-1H-pyrrolo[2,3-b]pyridin-3-yl]-pyrimidin-4-yl}-1-pyridin-3-ylethanol] | 56 nM |
| COCOC(C)(c1ccccc1)c1cc(-c2c[nH]c3ncc(-c4cnn(C)c4)cc23)nc(N)n1 (stereo not shown) [A25, 4-(1-methoxymethoxy-1-phenylethyl)-6-[5-(1-methyl-1H-pyrazol-4-yl)-1H-pyrrolo[2,3-b]pyridin-3-yl]pyrimidin-2-ylamine] | 58 nM |
| CCC(O)(c1cccnc1)c1cc(-c2c[nH]c3ncc(-c4cnn(C)c4)cc23)nc(N)n1 (stereo not shown) [A26, 1-{2-amino-6-[5-(1-methyl-1H-pyrazol-4-yl)-1H-pyrrolo[2,3-b]pyridin-3-yl]-pyrimidin-4-yl}-1-pyridin-3-ylpropan-1-ol] | 43 nM |
| COC(C)(c1ccccc1)c1cc(-c2c[nH]c3ncc(-c4cnn(CCO)c4)cc23)nc(N)n1 (stereo not shown) [A27, 2-(4-{3-[2-amino-6-(1-methoxy-1-phenylethyl)pyrimidin-4-yl]-1H-pyrrolo-[2,3-b]pyridin-5-yl}pyrazol-1-yl)ethanol] | 32 nM |
| CCC(O)(c1ccncc1)c1cc(-c2c[nH]c3ncc(-c4cnn(C)c4)cc23)nc(N)n1 (stereo not shown) [A28, 1-{2-amino-6-[5-(1-methyl-1H-pyrazol-4-yl)-1H-pyrrolo[2,3-b]pyridin-3-yl]-pyrimidin-4-yl}-1-pyridin-4-ylpropan-1-ol] | 6.9 nM |
| COCOC(C)(c1cc(-c2c[nH]c3ncc(-c4cnn(C)c4)cc23)nc(N)n1)c1cccc(Cl)c1F (stereo not shown) [A29, 4-[1-(3-chloro-2-fluorophenyl)-1-methoxymethoxyethyl]-6-[5-(1-methyl-1H-pyrazol-4-yl)-1H-pyrrolo[2,3-b]pyridin-3-yl]pyrimidin-2-ylamine] | 40 nM |
